Legend:
Assay type in all cases: cell-based
S. mutans strains = test: Overlay technique, panel of S. mutans strains; conditions: mutacin 1140 produced by a JH1140 strain
Method: (§1) Three drops of an overnight THB culture of the indicator strain were mixed with 3 ml of molten top agar and poured evenly over the surface of the plate. After an additional 24 hours of incubation, clear zones surrounding the test strain were measured.
(§2) The inhibitory factor inhibited 124 of 125 S. mutans strains tested. […] The following table summarizes the spectrum of activity found for the lantibiotic.

Gram positive organisms = test: Overlay technique, Gram positive organisms; conditions: including Streptococcus mitts, Streptococcus pyogenes, Staphylococcus aureus, Actinomyces species
Method: as §1, §2

Gram-negative bacteria = test: Overlay technique, Gram-negative bacteria
Method: as §1, §2

[1] = tested on: other strains of S. mutans; test: Sterility of agar taken from clear zones; conditions: loopfuls of agar taken from clear zones were sterile

mutacin 1140
S. mutans strains inhibited of strains tested (S. mutans strains): 124 of 125 | Sensitivity of most Gram positive organisms to inhibitory activity (Gram positive organisms): sensitive | Inhibition of Gram-negative bacteria (Gram-negative bacteria): mostly resistant | Kind of effect on other strains of S. mutans [1]: bacteriocidal

From patent publication US6964760B2, “Antimicrobial polypeptide, nucleic acid, and methods of use” (University of Florida Research Foundation, priority 1997, dated 2005)
